The values that follow come from US9758541B2 (priority 2013, dated 2017).

One assay relates to Mia-PaCa cells (pancreatic cancer cells). Conditions: read-out: IC50 (μM) of P53, Table 2, 72 h exposure, MTS.
Regarding “2-ferrocenyl-1,1-bis-(4-hydroxyphenyl)-5-hydroxy-pent-1-ene [P53]”, the IC50 amounted to 1.23 µM.

For a further assay, the system named is MDA-MB-231 cells (non-hormone-dependent breast cancer cells). It is filed as cell-based.
Details: not given
In turn, “2,3-Dihydro-3-methoxy-2-[5-ferrocenyl-6,6-bis-(4-hydroxyphenyl)-hex-5-enyl]-1H-isoindol-1-one [P727]” gave an IC50 of 1.63 µM.
Same read-out and setting: as for “2-ferrocenyl-1-(4-hydroxyphenyl)-5-hydroxy-1-phenyl-pent-1-ene [P681]”, the figure is 1.22 µM.
“2-ferrocenyl-1,1-bis-(4-hydroxyphenyl)-5-dimethylamino-pent-1-ene [P697]” displayed an IC50 of 2.53 µM.
On the same count and under the same terms, as for “Ethyl 3-ene-3-ferrocenyl-4,4-bis-(4-hydroxyphenyl)-butanoate [P64]”, the figure is 1.16 µM; as for “Methyl 6-ene-6-ferrocenyl-7,7-bis-(4-hydroxyphenyl)-heptanoate [P504]”, 0.62 µM.
Take “1,1-bis-(4-hydroxyphenyl)-5-hydroxy-2-ruthenocenyl-pent-1-en [W3]”: it took 12.5 µM to reach half-maximal inhibition (IC50).
On to “N-{4-ferrocenyl-5,5-bis-(4-hydroxyphenyl)-pent-4-enyl}phthalimide [P686]”, for which the midpoint of inhibition, the IC50, lay at 0.2 µM.
In turn, “2,3-Dihydro-3-hydroxy-2-[4-ferrocenyl-5,5-bis-(4-hydroxyphenyl)-pent-4-enyl]-1H-isoindol-1-one [P710]” showed an IC50 of 0.59 µM.
On the same count and under the same terms, as for “N-{5-ferrocenyl-6,6-bis-(4-hydroxyphenyl)-hex-5-enyl}phthalimide [P720]”, the figure is 0.33 µM.

Another assay relates to PC3 cells (non-hormone-dependent prostate cancer cells). Conditions: read-out: IC50 (μM) of P53, Table 2, 72 h exposure, MTS.
For the substance “2-ferrocenyl-1,1-bis-(4-hydroxyphenyl)-5-hydroxy-pent-1-ene [P53]”, the IC50 is 4.43 µM.
